Results taken from patent US8022225B2, “Triazole derivative” (Taisho Pharmaceutical Co., Ltd, priority 2004, dated 2011).
Read-outs that look alike come from different tables or passages of the source.

Target: T1, human Edg-1(S1P1) (Homo sapiens, UniProt P21453)
T1 construct: expressed in transfected cells; host or cells: HEK-293
Assay: Cell system binding test: inhibition of [3H]-S1P binding to Edg-1(S1P1) gene transferred HEK-293 cells
Conditions: [3H]-S1P 10 nM
Protocol: Cells (1×10^5 cells/well) obtained as described above were seeded in poly-L-lysine-coated 96-well plates (Corning Incorporated), and then incubated in a 5% carbon dioxide gas incubator for 12 hours at 37° C. with the use of an MEM medium (Invitrogen Corporation) containing 100 U/mL of penicillin, 100 μg/mL of streptomycin, a 1% MEM nonessential amino acid solution, and 10% FCS. […] After the cells were washed twice with the buffer, they were solubilized with 100 μL of Opti Phase Supermix (produced by Perkin-Elmer), and measured for radioactivity by means of Micro Beta (produced by Perkin-Elmer).
Inhibition rate(%)=[1−(A−C)/(B−C)]×100

[1] = 10 μM compound, read-out: Cell system binding test % inhibition (10 μM)
[2] = test compound 10^-5 M, 1 hour, read-out: Edg-1(S1P1) binding inhibition rate (cell system binding test)

T1 sequence (P21453 whole entry): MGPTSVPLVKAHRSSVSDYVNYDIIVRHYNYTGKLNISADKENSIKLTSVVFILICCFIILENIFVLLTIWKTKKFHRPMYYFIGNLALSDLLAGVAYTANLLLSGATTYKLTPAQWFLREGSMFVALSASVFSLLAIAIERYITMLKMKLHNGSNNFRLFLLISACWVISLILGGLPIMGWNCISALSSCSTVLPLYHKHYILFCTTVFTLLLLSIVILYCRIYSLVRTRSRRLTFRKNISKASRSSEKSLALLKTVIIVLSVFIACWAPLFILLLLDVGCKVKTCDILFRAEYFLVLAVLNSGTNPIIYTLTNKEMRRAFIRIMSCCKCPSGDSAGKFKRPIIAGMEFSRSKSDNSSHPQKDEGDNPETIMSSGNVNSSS

Row | Structure (SMILES) | inhibition at 10 µM [1] [%] | inhibition at 10 µM [2] [%]
1 | CCn1c(SCc2ccc(C(C)(C)C)cc2)nnc1C(C)NS(=O)(=O)c1ccc(Cl)cc1 (stereo not shown) [Compound 89] | 89.3 | –
2 | C=CCSc1nnc([C@@H](C)NS(=O)(=O)c2ccc(Cl)cc2)n1C [Compound 92] | 88.3 | –
3 | C=CCSc1nnc(C(CC)NS(=O)(=O)c2ccc(Cl)cc2)n1C (stereo not shown) [Compound 105] | 71.5 | –
4 | CCCC(NS(=O)(=O)c1ccc(Cl)cc1)c1nnc(SCc2ccccc2)n1C (stereo not shown) [Compound 126] | 77 | –
5 | CCCC(NS(=O)(=O)c1ccc(Cl)cc1)c1nnc(SCc2ccc(C)cc2)n1C (stereo not shown) [Compound 127] | 63.6 | –
6 | C=CCSc1nnc([C@@H](Cc2ccccc2)NS(=O)(=O)c2ccc(Cl)cc2)n1CCCC [Compound 145] | 46 | –
7 | C=CCSc1nnc([C@@H](Cc2ccccc2)NS(=O)(=O)c2ccc(Cl)cc2)n1CC(C)C [Compound 147] | 75.2 | –
8 | C=CCSc1nnc([C@@H](Cc2ccccc2)NS(=O)(=O)c2ccc(Cl)cc2)n1C(C)CC (stereo partly shown) [Compound 149] | 63.4 | –
9 | C=CCSc1nnc([C@@H](Cc2ccccc2)NS(=O)(=O)c2ccc(Cl)cc2)n1CCOC [Compound 151] | 41.6 | –
10 | C=CCSc1nnc([C@@H](Cc2ccccc2)NS(=O)(=O)c2ccc(Cl)cc2)n1CCN1CCOCC1 [Compound 153] | 26.8 | –
11 | C=CCSc1nnc([C@@H](Cc2ccccc2)NS(=O)(=O)c2ccc(Cl)cc2)n1C1CCCC1 [Compound 164] | 40.4 | –
12 | CCn1c([C@@H](C)NS(=O)(=O)c2ccc(Cl)cc2)nnc1[S+](C)[O-] (stereo partly drawn) [Compound 180, 4-Chloro-N-{(1R)-1-[4-ethyl-5-(methylsulfinyl)-4H-1,2,4-triazol-3-yl]ethyl}benzenesulfonamide] | 48.9 | –
13 | CCn1c(OC)nnc1[C@@H](C)NS(=O)(=O)c1ccccc1Cl [Compound 194] | 85.6 | –
14 | CCn1c(OC)nnc1[C@@H](C)NS(=O)(=O)c1c(Cl)cccc1Cl [Compound 219] | 95.9 | –
15 | CCn1c(OC)nnc1[C@@H](C)NS(=O)(=O)c1c(C)cc(C)cc1C [Compound 225] | 94 | –
16 | CCn1c(OC)nnc1[C@@H](C)NS(=O)(=O)c1ccc(S(C)(=O)=O)cc1 [Compound 228] | 93.9 | –
17 | CCn1c(OC)nnc1[C@@H](C)NS(=O)(=O)Cc1ccccc1[N+](=O)[O-] [Compound 234] | 90.9 | –
18 | CCCCCCCCS(=O)(=O)N[C@H](C)c1nnc(OC)n1CC [Compound 236] | 98.9 | –
19 | CCCS(=O)(=O)N[C@H](C)c1nnc(OC)n1CC [Compound 239] | 92.7 | –
20 | CCn1c(OC)nnc1[C@@H](C)NS(=O)(=O)Cc1ccccc1 [Compound 244] | 92.3 | –
21 | CCn1c(OC)nnc1[C@@H](C)NS(=O)(=O)c1c(C)nn(C)c1Cl [Compound 253] | 83.4 | –
22 | CCn1c(OC)nnc1[C@@H](C)NS(=O)(=O)c1c(C)noc1C [Compound 254] | 84.6 | –
23 | CCn1c(OC)nnc1[C@@H](C)NS(=O)(=O)c1ccc(C(=O)OC)o1 [Compound 256] | 95.6 | –

Row | Structure (SMILES) | inhibition at 10 µM [1] [%] | inhibition at 10 µM [2] [%]
24 | CCn1c(OC)nnc1[C@@H](C)NS(=O)(=O)c1ccccc1C(=O)OC [Compound 259] | 86.8 | –
25 | CCn1c(OC)nnc1[C@@H](C)NS(=O)(=O)c1ccc(C(C)(C)CC)cc1 [Compound 271] | 89.6 | –
26 | CCn1c(OC)nnc1[C@@H](C)NS(=O)(=O)c1ccccc1OC(F)(F)F [Compound 276] | 88.9 | –
27 | CCn1c(OC)nnc1[C@@H](C)NS(=O)(=O)c1ccc(Oc2ccccc2)cc1 [Compound 278] | 70.9 | –
28 | CCn1c(OC)nnc1[C@@H](C)NS(=O)(=O)c1ccc(F)cc1F [Compound 279] | 101 | –
29 | CCn1c(OC)nnc1[C@@H](C)NS(=O)(=O)c1ccccc1F [Compound 280] | 91 | –
30 | CCn1c(OC)nnc1[C@@H](C)NS(=O)(=O)c1ccccc1I [Compound 283] | 73.9 | –
31 | CCn1c(OC)nnc1[C@@H](C)NS(=O)(=O)Cc1ccc(Cl)cc1 [Compound 293] | 31.8 | –
32 | CCn1c(OC)nnc1[C@@H](C)NS(=O)(=O)Cc1ccc(F)cc1 [Compound 294] | 64.5 | –
33 | CCn1c(OC)nnc1[C@@H](C)NS(=O)(=O)Cc1cccc(C(F)(F)F)c1 [Compound 295] | 66.1 | –
34 | CCn1c(OC)nnc1[C@@H](C)NS(=O)(=O)CC(c1ccccc1)c1ccccc1 [Compound 297] | 23.8 | –
35 | CCn1c(OC)nnc1[C@@H](C)NS(=O)(=O)c1c(F)cccc1F [Compound 298] | 85.7 | –
36 | CCn1c(OC)nnc1[C@@H](C)NS(=O)(=O)c1cc(Cl)ccc1OC [Compound 300] | 95 | –
37 | CCn1c(OC)nnc1[C@@H](C)NS(=O)(=O)c1ccc(CCC(=O)OC)cc1 [Compound 301] | 78.3 | –
38 | CCn1c(OC)nnc1[C@@H](C)NS(=O)(=O)Cc1cccc([N+](=O)[O-])c1 [Compound 304] | 79.8 | –
39 | CCn1c(OC)nnc1[C@@H](C)NS(=O)(=O)Cc1cccc(Cl)c1 [Compound 305] | 86.5 | –
40 | CCn1c(OC)nnc1[C@@H](C)NS(=O)(=O)c1cc(Cl)ccc1F [Compound 316] | 92.9 | –
41 | CCn1c(OC)nnc1[C@@H](C)NS(=O)(=O)CCCOc1ccc(OC)cc1 [Compound 318] | 68.5 | –
42 | CCn1c(OC)nnc1[C@@H](C)NS(=O)(=O)Cc1ccccn1 [Compound 323] | 64.4 | –
43 | CCn1c(OC)nnc1[C@@H](C)NS(=O)(=O)c1cccc(Oc2ccccc2OC)c1 [Compound 324] | 88.1 | –
44 | CCn1c(OC)nnc1[C@@H](C)NS(=O)(=O)Cc1cccnc1 [Compound 325] | 36.5 | –
45 | CCn1c(OC)nnc1[C@@H](C)NS(=O)(=O)Cc1ccncc1 [Compound 329] | 38.5 | –
46 | CCn1c(OC)nnc1[C@@H](C)NS(=O)(=O)CCN1C(=O)c2ccccc2C1=O [Compound 331] | 23.9 | –

Second part, the compound after the results:

Row | inhibition at 10 µM [1] [%] | inhibition at 10 µM [2] [%] | Structure (SMILES)
47 | 35.5 | – | CCn1c(OC)nnc1[C@@H](C)NS(=O)(=O)c1ccccc1OC [Compound 332]
48 | 92.8 | – | CCn1c(OC)nnc1[C@@H](C)NS(=O)(=O)CC1CCCCC1 [Compound 333]
49 | 54.7 | – | CCCCCCCCCCS(=O)(=O)N[C@H](C)c1nnc(OC)n1CC [Compound 334]
50 | 89.3 | – | CCn1c(OC)nnc1[C@@H](C)NS(=O)(=O)c1cnoc1C [Compound 336]
51 | 92.1 | – | CCn1c(OC)nnc1[C@@H](C)NS(=O)(=O)c1sc(C)nc1C [Compound 339]
52 | 77.5 | – | CCn1c(OC)nnc1[C@@H](C)NS(=O)(=O)c1cccc2nsnc12 [Compound 340]
53 | 88.4 | – | CCn1c(OC)nnc1[C@@H](C)NS(=O)(=O)c1ccsc1 [Compound 342]
54 | 88.5 | – | CCn1c(OC)nnc1[C@@H](C)NS(=O)(=O)c1ccc(-c2cnco2)s1 [Compound 345]
55 | 38.5 | – | CCn1c(OC)nnc1[C@@H](C)NS(=O)(=O)c1ccc(-c2cnco2)cc1 [Compound 346]
56 | 23.3 | – | CCCCNC(=O)Nc1ccc(S(=O)(=O)N[C@H](C)c2nnc(OC)n2CC)cc1 [Compound 353]
57 | 85.6 | – | CCn1c(OC)nnc1[C@@H](C)NS(=O)(=O)c1cccc(C(=O)c2ccncc2)c1 [Compound 357]
58 | 79.6 | – | CCn1c(OC)nnc1[C@@H](C)NS(=O)(=O)c1cccc(C(=O)c2ccccn2)c1 [Compound 358]
59 | 28.2 | – | CCn1c(OC)nnc1[C@@H](C)NS(=O)(=O)c1ccc(NC(=O)NC)c(Cl)c1 [Compound 362]
60 | 100 | – | CCn1c(OC)nnc1[C@@H](C)NS(=O)(=O)c1ccc2oc(=O)ccc2c1 [Compound 363]
61 | 27 | – | CCn1c(OC)nnc1[C@@H](C)NS(=O)(=O)c1ccc(Cl)c(S(N)(=O)=O)c1 [Compound 364]
62 | 32.3 | – | CCn1c(OC)nnc1[C@@H](C)NS(=O)(=O)c1ccccc1-c1ccccc1 [Compound 370]
63 | 73.4 | – | CCn1c(OC)nnc1[C@@H](C)NS(=O)(=O)c1cccnc1 [Compound 373]
64 | 67.8 | – | CCOc1nnc([C@@H](C)NS(=O)(=O)c2cccc(O)c2)n1CC [Compound 419]
65 | 71.3 | – | CCn1c(OC)nnc1[C@@H](C)NS(=O)(=O)c1ncc(C)s1 [Compound 421]
66 | 47.5 | – | CCn1c(OC)nnc1[C@@H](C)NS(=O)(=O)c1ccc(O)cc1 [Compound 422]
67 | 59.2 | – | CCn1c(OC)nnc1[C@@H](C)NS(=O)(=O)c1nc(C)cs1 [Compound 423]
68 | 58.7 | – | CCn1c(OC)nnc1[C@@H](C)NS(=O)(=O)c1ccc(C)cn1 [Compound 424]
69 | 83.6 | – | CCn1c(OC)nnc1[C@@H](C)NS(=O)(=O)c1ccc(C)o1 [Compound 425]
70 | 82.2 | – | CCOc1nnc([C@@H](C)NS(=O)(=O)c2cnc(C)s2)n1CC [Compound 438]
71 | 14.7 | – | CCn1c(OC)nnc1C(CCc1ccccc1)NS(=O)(=O)c1ccc(Cl)cc1 (stereo not shown) [Compound 441]
72 | 40.2 | – | CCn1c(OC)nnc1[C@@H](C)NS(=O)(=O)c1ccco1 [Compound 442]
73 | – | 88.9 | CCn1c(OC)nnc1[C@@H](CO)NS(=O)(=O)c1ccc(Cl)cc1 [Compound 483]
74 | – | 88.6 | CCn1c(OC)nnc1[C@H](NS(=O)(=O)c1ccc(Cl)cc1)[C@H](C)O [Compound 506]
75 | – | 100 | CCn1c(OC)nnc1[C@@H](C)NS(=O)(=O)c1ccc(OC)cc1 [Compound 508]
76 | – | 96.3 | CCOc1nnc([C@@H](C)NS(=O)(=O)c2ccc(Cl)cc2)n1C [Compound 540]
